Assay [1] has as its system endothelial cells (EOMA cells). As to the kind of experiment: DNA damage in endothelial cells after oxidative insult by H2O2. The format is cell-based. The note with it: 6 hours, p-value >0.100. The text has this: (§1) To that end, the inventors used endothelial cells (EOMA cells) and liver cells (AML-12 cells) in vitro and quantified various markers in response to exposure of the cells to environmental challenge in the presence and absence of DDA at low concentrations. Unless indicated otherwise, the DDA concentration in the in vitro experiments was 5 mcg per microliter. More specifically, the inventors measured p-H2AX protein levels as a marker for DNA damage, PGC-1α protein levels as a marker for mitochondrial biogenesis, NAMPT enzyme levels as a marker for potential for NAD+ production, and total antioxidant capacity as a marker of cellular health. In addition, the inventors also measured global SIRT activity as a gauge of activity for all SIRT enzymes, and in particular SIRT1 enzyme levels as markers for autophagy and various beneficial processes associated with a caloric restricted diet, and SIRT3 levels as markers for mitochondrial function and longevity.
(§2) In yet a further series of experiments, the inventors also sought to confirm whether or not DDDA would have a modulatory effect in endothelial cells using the same markers and experimental conditions as noted above.
Finally, the inventors also evaluated DNA damage in endothelial cells after oxidative insult by H2O2, and exemplary results are shown in FIG. 17. […] N=5-6 plates per treatment.

Assay [2] deals with SIRT3. Nature of the assay: SIRT3 in endothelial cells. The format is cell-based. The following applies: EOMA endothelial cells.
Source text: as §1, §2
N=5-6 plates per treatment.

Assay [3] deals with Wistar rats. Nature of the assay: Study 1 (prevention): liver histology (H&E, Oil Red O, Sirius Red). The assay is classed as in vivo. The following applies: Study 1, 4 weeks, 1% (w/vol) in drinking water. On the procedure:
Study design: All animal procedures were approved by the Catholic University of Rome Institutional Animal Care Committee. The design of the studies is summarized in FIG. 18, Panels A and B. • Study 1: Twenty adult Wistar rats, aged 8-10 weeks, were included in the study. The rats were housed in individual cages at 22° C. with 12-h light cycles and had ad libitum access to food and water. Rats were fed a high-fat high-cholesterol diet (44% Carbohydrate, 14% Protein, 42% fat+0.2% Cholesterol) (Mucedola, Milan, IT) for four weeks in the presence or absence of 1% Dodecanedioic acid, sodium salt (w/vol) dissolved in the water (FIG. 18, Panel A). Body weight and food/water intake were monitored weekly. • Study 2: Twenty adult Wistar rats, aged 8-10 weeks, were included in the study. The rats were housed in individual cages at 22° C. with 12-h light cycles and had ad libitum access to food and water. Rats were fed a high-fat high-cholesterol diet (44% Carbohydrate, 14% Protein, 42% fat+0.2% Cholesterol) (Mucedola, Milan, IT). After nine weeks of diet, rats were randomly assigned to one of the following groups: Four weeks of high-fat high-cholesterol diet or four weeks of high-fat high-cholesterol diet and 1% Dodecanedioic acid, sodium salt (w/v) dissolved in the water FIG. 18, Panel B). Body weight and food/water intake were monitored weekly.
Histology: The day of the sacrifice fresh portions of liver were cut, embedded in cryo-embedding media (OCT) and snap frozen in liquid nitrogen. Biopsies were cut using a cryostat (5 μm) and slides stored a −20° C. until analyses.
Hematoxylin and Eosin staining was performed to assess hepatic steatosis. Slides were fixed 10 minutes with 95% ethanol, stained with hematoxylin for 1 minute, washed with distilled water, stained with eosin for 30 seconds and cleared in two changes of pure ethanol and two changes of xylene.
Oil Red O was performed to assess intracellular lipid accumulation. Slides were fixed overnight with 4% formalin, stained with Oil Red O solution for 1 hour. Counterstain was performed with Hematoxylin solution.
Sirius Red was used to identify hepatic fibrosis. Slides were fixed 10 minutes with 4% formalin, stained in Direct red 80 for 1 hour, washed in acidified water and dehydrate in 3 changes of absolute ethanol. After brief clearing in xylene, the slides were mounted in a resinous medium. Images were taken with an optical microscope (Leica DM2000, Wetzlar, DE). […]
Panels A and B. • Study 1: Twenty adult Wistar rats, aged 8-10 weeks, were included in the study. […] Body weight and food/water intake were monitored weekly. • Study 2: Twenty adult Wistar rats, aged 8-10 weeks, were included in the study. […] Body weight and food/water intake were monitored weekly. […]

For assay [4] the following is noted: NIDDM patients, intravenous infusion; cited from earlier work.
Assay [5] concerns SIRT3. As to the kind of experiment: SIRT3 protein levels in liver cells. The note with it: AML-12 liver cells, 24 hours; p=0.028. The format is cell-based.
Source text: as §1
In still further experiments, the inventors also investigated whether or not DDDA could have stimulatory effects on selected SIRT proteins. More specifically, the inventors tested the effects of DDDA on SIRT3 and SIRT1, and exemplary results are shown in FIG. 9 and FIG. 10, respectively. […] N=5-6 plates per treatment. […] Beyond this trend, however, no other observations were evident. N=5-6 plates per treatment.

The subject of assay [6] is SIRT enzymes. As to the kind of experiment: Global SIRT activity in liver cells. The format is cell-based. The following applies: AML-12 liver cells.
Source text: as §1
In still further experiments, the liver cells were also tested for global SIRT activity and exemplary results are shown in FIG. 6.

For `O=C(O)CCCCCCCCCCC(=O)O` [DDDA, dodecanedioic acid], the DNA damage result in assay [1] is “numerically decreased DNA damage”. In addition, the SIRT3 entry in assay [2] (24 hours) is reported as “significant decline”. Besides, the SIRT3 result in assay [2] (acute (6-hour data)) is “strong and acute increase”. Further, in assay [3], the “diet-induced NASH (histology, prevention)” value is on record as “prevents diet-induced NASH”; the “fibrosis (Picro Sirius Red)” value is “reduced”; the “hepatic steatosis (Hematoxylin and Eosin)” value is reported as “reduced”; the “neutral lipids deposition (Oil Red O)” value is recorded as “reduced”. For the same molecule, the “plasma glucose levels during infusion” value in assay [4] is recorded as “significantly decreased”. Also, the SIRT3 protein levels result in assay [5] is given as “significantly increased”. For the same molecule, the “global SIRT activity” value in assay [6] (6 hours, in the presence of hydrogen peroxide, p<0.001) is “increased global SIRT activity in a statistically significant manner”. In addition, the “global SIRT activity” value in assay [6] (24 hours, no hydrogen peroxide, same trend, p=0.065) was “did not reach a level of significance”.

Values taken from patent publication US20260053767A1, “Hepatoprotective Compositions And Methods” (Jemyll, Ltd., priority 2022, published 2026).
